From the NIST ThermoML archive (doi:10.1016/j.jct.2007.10.007)
± gives the expanded uncertainty stated by the source. One block for each molecule: values may come before it.

Experiment: mn = molality of the nth substance listed, in mol/kg
Conditions: 298.15 K, 101 kPa, Liquid

SMILES: CCCCn1cc[n+](C)c1.[Cl-] [1-butyl-3-methylimidazolium chloride] + O
mass density (m1 = 0.05281): 997.72 ± 0.51 kg/m3
speed of sound (m1 = 0.05281): 1504.8 ± 1.5 m/s
mass density (m1 = 0.09783): 998.29 ± 0.51 kg/m3
speed of sound (m1 = 0.09783): 1510.5 ± 1.5 m/s
mass density (m1 = 0.1433): 998.85 ± 0.51 kg/m3
speed of sound (m1 = 0.1433): 1516.7 ± 1.5 m/s
mass density (m1 = 0.1998): 999.56 ± 0.5 kg/m3
speed of sound (m1 = 0.1998): 1524.4 ± 1.5 m/s
mass density (m1 = 0.2471): 1000.15 ± 0.5 kg/m3
speed of sound (m1 = 0.2471): 1530.2 ± 1.5 m/s
mass density (m1 = 0.2899): 1000.69 ± 0.51 kg/m3
speed of sound (m1 = 0.2899): 1535.5 ± 1.5 m/s
mass density (m1 = 0.3173): 1001.04 ± 0.51 kg/m3
speed of sound (m1 = 0.3173): 1539.1 ± 1.5 m/s
mass density (m1 = 0.4052): 1002.14 ± 0.52 kg/m3
speed of sound (m1 = 0.4052): 1549.9 ± 1.5 m/s
mass density (m1 = 0.422): 1002.35 ± 0.52 kg/m3
speed of sound (m1 = 0.422): 1551.9 ± 1.5 m/s
mass density (m1 = 0.4995): 1003.31 ± 0.52 kg/m3
speed of sound (m1 = 0.4995): 1562.2 ± 1.5 m/s

SMILES: Cl.c1c[nH]cn1 [imidazolium chloride] + O
mass density (m1 = 0.04296): 998.24 ± 0.51 kg/m3
speed of sound (m1 = 0.04296): 1500.1 ± 1.5 m/s
mass density (m1 = 0.1027): 999.89 ± 0.5 kg/m3
speed of sound (m1 = 0.1027): 1503.8 ± 1.5 m/s
mass density (m1 = 0.153): 1001.26 ± 0.51 kg/m3
speed of sound (m1 = 0.153): 1507 ± 1.5 m/s
mass density (m1 = 0.1976): 1002.47 ± 0.52 kg/m3
speed of sound (m1 = 0.1976): 1509.7 ± 1.5 m/s
mass density (m1 = 0.2417): 1003.72 ± 0.53 kg/m3
speed of sound (m1 = 0.2417): 1512.4 ± 1.5 m/s
mass density (m1 = 0.2914): 1004.65 ± 0.53 kg/m3
speed of sound (m1 = 0.2914): 1515.8 ± 1.5 m/s
mass density (m1 = 0.34): 1006.45 ± 0.55 kg/m3
speed of sound (m1 = 0.34): 1517.9 ± 1.5 m/s
mass density (m1 = 0.3893): 1007.62 ± 0.55 kg/m3
speed of sound (m1 = 0.3893): 1521.2 ± 1.5 m/s
mass density (m1 = 0.4495): 1008.96 ± 0.56 kg/m3
speed of sound (m1 = 0.4495): 1525.2 ± 1.5 m/s
mass density (m1 = 0.5003): 1010.31 ± 0.57 kg/m3
speed of sound (m1 = 0.5003): 1527.9 ± 1.5 m/s

The remaining lines, values ahead:

mass density (m1 = 0.05234): 998.29 ± 0.51 kg/m3
speed of sound (m1 = 0.05234): 1501.6 ± 1.5 m/s
mass density (m1 = 0.09548): 999.3 ± 0.51 kg/m3
speed of sound (m1 = 0.09548): 1504.7 ± 1.5 m/s
mass density (m1 = 0.147): 1000.49 ± 0.5 kg/m3
speed of sound (m1 = 0.147): 1508.5 ± 1.5 m/s
mass density (m1 = 0.1998): 1001.69 ± 0.51 kg/m3
speed of sound (m1 = 0.1998): 1512.5 ± 1.5 m/s
mass density (m1 = 0.2472): 1002.77 ± 0.52 kg/m3
speed of sound (m1 = 0.2472): 1516 ± 1.5 m/s
mass density (m1 = 0.3011): 1003.97 ± 0.53 kg/m3
speed of sound (m1 = 0.3011): 1519.9 ± 1.5 m/s
mass density (m1 = 0.3555): 1005.18 ± 0.54 kg/m3
speed of sound (m1 = 0.3555): 1523.9 ± 1.5 m/s
mass density (m1 = 0.3994): 1006.13 ± 0.54 kg/m3
speed of sound (m1 = 0.3994): 1526.3 ± 1.5 m/s
mass density (m1 = 0.4551): 1007.35 ± 0.55 kg/m3
speed of sound (m1 = 0.4551): 1530.5 ± 1.5 m/s
mass density (m1 = 0.5139): 1008.62 ± 0.56 kg/m3
speed of sound (m1 = 0.5139): 1534.6 ± 1.5 m/s
SMILES: Cl.Cn1ccnc1 [1-methylimidazolium chloride] + O

speed of sound (m2 = 0): 1497.6 ± 1.5 m/s
SMILES: O [water] + CCCCn1cc[n+](C)c1.[Cl-]

speed of sound (m2 = 0): 1497.6 ± 1.5 m/s
SMILES: O [water] + Cl.Cn1ccnc1

speed of sound (m2 = 0): 1497.6 ± 1.5 m/s
SMILES: O [water] + Cl.c1c[nH]cn1
